According to US10544143B2, “4-azaindole compounds” (BRISTOL-MYERS SQUIBB COMPANY, priority 2017, dated 2020):
pIC50: −log10 of the molar value. Where two headings read alike, the source gives them in different places.

Tests used:
[1] = molecular target: human TLR9 (Homo sapiens (Human), UniProt Q9NR96); test: TLR9 inhibition reporter assay (HEK-Blue SEAP); details: read-out: TLR9 IC50;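 also: SEAP driven by an IFN-β minimal promoter with NF-κB and AP-1 sites, read after 22 h, compounds dosed 0.05 nM–50 µM, inhibition scaled between agonist plus DMSO and reference-inhibitor wells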
Sequence of human TLR9 (Q9NR96 26-1032): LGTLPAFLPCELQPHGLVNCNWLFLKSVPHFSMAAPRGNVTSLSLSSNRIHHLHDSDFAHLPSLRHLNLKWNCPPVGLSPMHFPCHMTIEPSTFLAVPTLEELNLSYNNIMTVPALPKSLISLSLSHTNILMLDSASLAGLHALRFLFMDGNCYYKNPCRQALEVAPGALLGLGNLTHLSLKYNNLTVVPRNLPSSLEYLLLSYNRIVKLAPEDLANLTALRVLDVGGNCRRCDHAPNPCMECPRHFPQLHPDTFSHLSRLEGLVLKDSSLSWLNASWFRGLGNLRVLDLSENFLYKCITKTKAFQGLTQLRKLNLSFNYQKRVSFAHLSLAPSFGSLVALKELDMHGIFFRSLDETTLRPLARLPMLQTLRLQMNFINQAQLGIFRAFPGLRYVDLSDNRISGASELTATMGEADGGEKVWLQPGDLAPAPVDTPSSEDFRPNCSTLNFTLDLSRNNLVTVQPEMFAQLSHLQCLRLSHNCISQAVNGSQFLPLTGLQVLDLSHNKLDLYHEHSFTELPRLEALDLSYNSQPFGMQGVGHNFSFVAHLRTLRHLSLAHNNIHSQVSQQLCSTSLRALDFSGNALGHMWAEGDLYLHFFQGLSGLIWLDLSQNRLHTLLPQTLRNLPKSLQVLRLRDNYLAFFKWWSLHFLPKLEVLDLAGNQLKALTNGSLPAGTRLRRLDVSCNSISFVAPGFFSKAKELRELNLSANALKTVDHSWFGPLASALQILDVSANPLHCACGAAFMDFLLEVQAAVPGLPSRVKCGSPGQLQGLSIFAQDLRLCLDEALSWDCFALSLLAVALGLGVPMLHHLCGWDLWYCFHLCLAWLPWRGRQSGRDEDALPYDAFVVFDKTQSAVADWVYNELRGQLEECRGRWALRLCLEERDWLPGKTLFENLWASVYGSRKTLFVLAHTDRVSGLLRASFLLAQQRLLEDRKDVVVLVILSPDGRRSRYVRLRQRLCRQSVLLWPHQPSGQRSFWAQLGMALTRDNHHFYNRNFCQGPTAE
Experimental: HEK-Blue™-cells (Invivogen) overexpressing human TLR7, TLR8 or TLR9 receptors were used for screening inhibitors of these receptors using an inducible SEAP (secreted embryonic alkaline phosphatase) reporter gene under the control of the IFN-β minimal promoter fused to five NF-κB and AP-1-binding sites. Briefly, cells are seeded into Greiner 384 well plates (15000 cells per well for TLR7, 20,000 for TLR8 and 25,000 for TLR9) and then treated with test compounds in DMSO to yield a final dose response concentration range of 0.05 nM-50 μM. After a 30 minute compound pre-treatment at room temperature, the cells are then stimulated with a TLR7 ligand (gardiquimod at a final concentration of 7.5 μM), TLR8 ligand (R848 at a final concentration of 15.9 μM) or TLR9 ligand (ODN2006 at a final concentration of 5 nM) to activate NF-κB and AP-1 which induce the production of SEAP. After a 22 hour incubation at 37° C., 5% CO2, SEAP levels are determined with the addition of HEK-Blue™ Detection reagent (Invivogen), a cell culture medium that allows for detection of SEAP, according to manufacturer's specifications.

[2] = molecular target: human TLR8 (Homo sapiens (Human), UniProt Q9NR97); test: TLR8 inhibition reporter assay (HEK-Blue SEAP); details: read-out: TLR8 IC50;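 also: SEAP driven by IFN-β minimal promoter carrying NF-κB and AP-1 sites, compounds dosed 0.05 nM to 50 µM for 22 h, inhibition scaled between agonist-plus-DMSO and reference-inhibitor wells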
Sequence of human TLR8 (Q9NR97 27-1041): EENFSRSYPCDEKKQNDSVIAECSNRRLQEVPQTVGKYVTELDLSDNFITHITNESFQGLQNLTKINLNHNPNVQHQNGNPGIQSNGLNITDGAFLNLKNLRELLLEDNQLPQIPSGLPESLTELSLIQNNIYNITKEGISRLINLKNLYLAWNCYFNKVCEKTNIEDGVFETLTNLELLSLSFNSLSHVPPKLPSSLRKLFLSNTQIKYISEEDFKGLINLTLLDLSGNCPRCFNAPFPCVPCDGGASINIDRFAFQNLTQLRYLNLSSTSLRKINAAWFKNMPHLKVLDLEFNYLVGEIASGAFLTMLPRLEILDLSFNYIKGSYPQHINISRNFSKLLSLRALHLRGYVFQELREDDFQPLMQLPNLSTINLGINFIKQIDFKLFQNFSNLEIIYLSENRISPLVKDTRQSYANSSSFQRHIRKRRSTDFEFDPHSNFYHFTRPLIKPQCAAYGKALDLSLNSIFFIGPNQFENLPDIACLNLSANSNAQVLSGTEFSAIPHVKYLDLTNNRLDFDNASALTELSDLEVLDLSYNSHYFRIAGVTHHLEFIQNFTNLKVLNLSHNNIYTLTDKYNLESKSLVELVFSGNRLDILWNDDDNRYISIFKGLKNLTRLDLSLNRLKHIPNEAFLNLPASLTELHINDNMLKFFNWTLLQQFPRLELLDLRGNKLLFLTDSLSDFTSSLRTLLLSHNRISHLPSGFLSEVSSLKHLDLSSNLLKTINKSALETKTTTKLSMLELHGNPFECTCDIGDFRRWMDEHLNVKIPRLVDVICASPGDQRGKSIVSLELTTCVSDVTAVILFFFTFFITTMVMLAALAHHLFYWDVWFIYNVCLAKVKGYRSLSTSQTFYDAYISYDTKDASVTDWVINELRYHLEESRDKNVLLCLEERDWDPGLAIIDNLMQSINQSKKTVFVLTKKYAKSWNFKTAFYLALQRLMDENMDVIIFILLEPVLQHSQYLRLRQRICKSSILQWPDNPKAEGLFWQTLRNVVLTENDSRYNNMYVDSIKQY

[3] = molecular target: human TLR7 (Homo sapiens (Human), UniProt Q9NYK1); test: TLR7 inhibition reporter assay (HEK-Blue SEAP); assay type: cell-based
Sequence of human TLR7 (Q9NYK1 27-1049): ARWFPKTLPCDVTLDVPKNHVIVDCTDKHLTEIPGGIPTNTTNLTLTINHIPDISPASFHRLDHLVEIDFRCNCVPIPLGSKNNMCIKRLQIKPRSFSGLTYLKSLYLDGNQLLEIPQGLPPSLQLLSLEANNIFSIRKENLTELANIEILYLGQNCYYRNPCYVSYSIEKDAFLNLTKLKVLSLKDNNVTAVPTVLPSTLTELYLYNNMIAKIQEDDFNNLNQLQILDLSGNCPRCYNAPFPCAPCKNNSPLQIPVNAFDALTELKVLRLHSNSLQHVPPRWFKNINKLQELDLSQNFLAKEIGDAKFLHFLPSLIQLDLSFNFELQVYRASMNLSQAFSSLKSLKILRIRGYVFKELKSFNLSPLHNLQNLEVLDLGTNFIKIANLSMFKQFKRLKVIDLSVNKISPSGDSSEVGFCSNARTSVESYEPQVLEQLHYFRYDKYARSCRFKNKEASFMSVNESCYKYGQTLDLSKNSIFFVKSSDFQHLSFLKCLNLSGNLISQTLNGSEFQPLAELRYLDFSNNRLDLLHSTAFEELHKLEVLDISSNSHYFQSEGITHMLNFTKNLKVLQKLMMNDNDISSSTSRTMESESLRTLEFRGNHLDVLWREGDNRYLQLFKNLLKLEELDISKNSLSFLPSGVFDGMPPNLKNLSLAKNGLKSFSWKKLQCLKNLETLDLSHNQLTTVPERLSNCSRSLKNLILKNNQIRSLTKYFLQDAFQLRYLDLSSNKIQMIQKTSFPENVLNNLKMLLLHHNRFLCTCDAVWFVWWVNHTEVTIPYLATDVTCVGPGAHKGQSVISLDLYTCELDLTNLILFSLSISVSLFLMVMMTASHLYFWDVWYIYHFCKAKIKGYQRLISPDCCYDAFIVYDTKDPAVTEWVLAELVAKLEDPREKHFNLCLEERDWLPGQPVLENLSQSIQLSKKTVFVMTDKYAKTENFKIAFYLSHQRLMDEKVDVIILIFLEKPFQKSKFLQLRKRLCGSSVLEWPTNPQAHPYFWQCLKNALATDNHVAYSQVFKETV

[4] = HEK-Blue human TLR9 cells, ODN2006 5 nM
[5] = HEK-Blue human TLR8 cells, R848 15.9 μM
[6] = HEK-Blue human TLR7 cells, gardiquimod 7.5 μM
[7] = HEK-Blue cells overexpressing human TLR9, SEAP reporter, ODN2006 5 nM
[8] = HEK-Blue cells overexpressing human TLR8, SEAP reporter, R848 15.9 μM
[9] = HEK-Blue cells overexpressing human TLR7, SEAP reporter, gardiquimod 7.5 μM
[10] = HEK-Blue cells overexpressing human TLR9, ODN2006 5 nM stimulation, SEAP reporter
[11] = HEK-Blue cells overexpressing human TLR8, R848 15.9 μM stimulation, SEAP reporter
[12] = HEK-Blue cells overexpressing human TLR7, gardiquimod 7.5 μM stimulation, SEAP reporter

Compound | pIC50 [1, 7] | pIC50 [2, 8] | pIC50 [3, 9] | pIC50 [1, 10] | pIC50 [2, 11] | pIC50 [3, 12] | other results
Cc1c(-c2[nH]c3ccc(N4C[C@H]5CC[C@@H]4CN5)nc3c2C(C)C)cn2ncnc2c1C [Example 980] |  |  |  |  |  |  | pIC50 [1, 4]: 5.20; pIC50 [2, 5]: 8.64; pIC50 [3, 6]: 8.66
Cc1c(-c2[nH]c3ccc(C4CCC(NC5CCOCC5)CC4)nc3c2C(C)C)cn2ncnc2c1C (stereo not drawn) [Example 451] | 5.98 | 9.20 | 9.32 |  |  |  | 
Cc1c(-c2[nH]c3ccc(N4CCN(C(=O)CN5CC(C)(O)C5)CC4)nc3c2C(C)C)cn2ncnc2c1C [Example 946] |  |  |  |  |  |  | pIC50 [1, 4]: 5.05; pIC50 [2, 5]: 8.74; pIC50 [3, 6]: 8.85
COc1cc(-c2[nH]c3cc(F)c(C4CCN(CC(=O)N(C)C)CC4)nc3c2C(C)C)cn2ncnc12 [Example 583] | 5.81 | 8.29 | 9.49 |  |  |  | 
Cc1c(-c2[nH]c3ccc(N4CCC(N(C)Cc5csnn5)CC4)nc3c2C(C)C)cn2ncnc2c1C [Example 77] |  |  |  | 4.93 | 8.70 | 8.32 | 
CCN1CC2(C1)CN(c1ccc3[nH]c(-c4cn5ncnc5c(C)c4C)c(C(C)C)c3n1)C2 [Example 744, 6-(5-(6-ethyl-2,6-diazaspiro[3.3]heptan-2-yl)-3-isopropyl-1H-pyrrolo[3,2-b]pyridin-2-yl)-7,8-dimethyl-[1,2,4]triazolo[1,5-a]pyridine] | 5.51 | 8.15 | 8.70 |  |  |  | 
Cc1c(-c2[nH]c3ccc(N4C[C@@H](C)N(C(=O)CN5CCCC5)C[C@@H]4C)nc3c2C(C)C)cn2ncnc2c1C [Example 738, 1-((2R,5S)-4-(2-(7,8-dimethyl-[1,2,4]triazolo[1,5-a]pyridin-6-yl)-3-isopropyl-1H-pyrrolo[3,2-b]pyridin-5-yl)-2,5-dimethylpiperazin-1-yl)-2-(pyrrolidin-1-yl)ethan-1-one] | 5.21 | 9.05 | 9.34 |  |  |  | 
Cc1c(-c2[nH]c3ccc(N4CC(N5CCC(O)CC5)C4)nc3c2C(C)C)cn2ncnc2c1C [Example 40] |  |  |  | 5.10 | 8.77 | 7.62 | 
COc1cc(-c2[nH]c3ccc(OC4CCN(CC(C)(C)O)CC4)nc3c2C(C)C)cn2ncnc12 [Example 613, 1-(4-((3-isopropyl-2-(8-methoxy-[1,2,4]triazolo[1,5-a]pyridin-6-yl)-1H-pyrrolo[3,2-b]pyridin-5-yl)oxy)piperidin-1-yl)-2-methylpropan-2-ol] | 5.91 | 8.49 | 8.70 |  |  |  | 
Cc1c(-c2[nH]c3ccc(C4CCC(N5CC(O)C5)CC4)nc3c2C(C)C)cn2ncnc2c1C (stereo not drawn) [Example 1049] |  |  |  |  |  |  | pIC50 [1, 4]: 5.59; pIC50 [2, 5]: 8.27; pIC50 [3, 6]: 8.80
Cc1c(-c2[nH]c3ccc(N4CCN(C(=O)CN(C)CC(C)(C)O)CC4)nc3c2C(C)C)cn2ncnc2c1C [Example 949] |  |  |  |  |  |  | pIC50 [1, 4]: 4.51; pIC50 [2, 5]: 8.80; pIC50 [3, 6]: 8.59
CNC(=O)CN1CCN(c2ccc3[nH]c(-c4cn5ncnc5c(C)c4C)c(C(C)C)c3n2)[C@@H](C)C1 [Example 812] |  |  |  |  |  |  | pIC50 [1, 4]: < 4.30; pIC50 [2, 5]: 8.44; pIC50 [3, 6]: 8.66
COc1cc(-c2[nH]c3ccc(C4CN(C5CCOCC5)CCO4)nc3c2C(C)C)cn2ncnc12 (stereo not drawn) [Example 659] | 5.07 | 7.62 | 7.92 |  |  |  | 
Cc1c(-c2[nH]c3ccc(C4CCC(NC5COC5)CC4)nc3c2C(C)C)cn2ncnc2c1C (stereo not drawn) [Example 350] |  |  |  | 5.94 | 9.00 | 9.14 | 
Cc1c(-c2[nH]c3ccc(C4CCC(N(C5CC5)C5COC5)CC4)nc3c2C(C)C)cn2cnnc2c1C (stereo not drawn) [Example 239] |  |  |  | < 4.30 | 6.74 | 6.97 | 
CCn1cc(-c2[nH]c3ccc(C4CCC(N5CC6(COC6)C5)CC4)nc3c2C(C)C)c2cccnc21 (stereo not drawn) [Example 294] |  |  |  | 5.64 | 6.76 | 7.07 | 
Cc1c(-c2[nH]c3ccc(C4CCC(N(C5CC5)C5COC5)CC4)nc3c2C(C)C)cn2cnnc2c1C (stereo not drawn) [Example 237] |  |  |  | 4.74 | 7.72 | 7.70 | 
COC1CN(C2CCC(c3ccc4[nH]c(-c5cn6ncnc6c(C)c5C)c(C(C)C)c4n3)CC2)C1 (stereo not drawn) [Example 1042] |  |  |  |  |  |  | pIC50 [1, 4]: 5.48; pIC50 [2, 5]: 8.48; pIC50 [3, 6]: 8.66
COc1cc(-c2[nH]c3ccc(C4CCC(NCC5(S(C)(=O)=O)CC5)CC4)nc3c2C(C)C)cn2ncnc12 (stereo not drawn) [Example 219] |  |  |  | 5.60 | 8.10 | 8.41 | 

Compound | pIC50 [1, 7] | pIC50 [2, 8] | pIC50 [3, 9] | pIC50 [1, 10] | pIC50 [2, 11] | pIC50 [3, 12] | other results
Cc1c(-c2[nH]c3ccc(N4CCN(C(=O)CNC(C)(C)C)CC4)nc3c2C(C)C)cn2ncnc2c1C [Example 877] |  |  |  |  |  |  | pIC50 [1, 4]: 4.90; pIC50 [2, 5]: 8.80; pIC50 [3, 6]: 8.82
COc1cc(-c2[nH]c3cc(C)c(C4CCC(NC5(C)COC5)CC4)nc3c2C(C)C)cn2ncnc12 (stereo not drawn) [Example 310] |  |  |  | 5.75 | 8.39 | 9.41 | 
CCC[C@H]1CNCCN1c1ccc2[nH]c(-c3cn4ncnc4c(C)c3C)c(C(C)C)c2n1 [Example 986] |  |  |  |  |  |  | pIC50 [1, 4]: 5.55; pIC50 [2, 5]: 9.42; pIC50 [3, 6]: 9.20
Cc1c(-c2[nH]c3ccc(N4CCC(N(C)Cc5cn(C)nn5)CC4)nc3c2C(C)C)cn2ncnc2c1C [Example 68] |  |  |  | 5.20 | 9.10 | 8.85 | 
Cc1c(-c2[nH]c3ccc(C4CCC(N5CCCC5)CC4)nc3c2C(C)C)cn2ncnc2c1C (stereo not drawn) [Example 360] |  |  |  | 5.85 | 8.47 | 8.89 | 
COc1cc(-c2[nH]c3ccc(C4CN(CCS(C)(=O)=O)C4)nc3c2C(C)C)cn2ncnc12 [Example 647] | 5.23 | 7.59 | 8.64 |  |  |  | 
COc1cc(-c2[nH]c3cc(C)c(C4CCN(C5COC5)CC4)nc3c2C(C)C)cn2ncnc12 [Example 579] | 5.74 | 7.10 | 9.41 |  |  |  | 
Cc1cc(-c2[nH]c3cc(F)c(C4CCN(C5COC5)CC4)nc3c2C(C)C)cn2ncnc12 [Example 588] | 4.79 | 7.38 | 8.64 |  |  |  | 
Cc1c(-c2[nH]c3ccc(N4CCNCC4=O)nc3c2C(C)C)cn2ncnc2c1C [Example 139] |  |  |  | < 4.30 | 7.85 | 7.43 | 
COc1cc(-c2[nH]c3ccc(C4CCC(N(CCS(C)(=O)=O)CCS(C)(=O)=O)C4)nc3c2C(C)C)cn2ncnc12 (stereo not drawn) [Example 726] | 4.40 | 5.68 | 5.87 |  |  |  | 
Cc1c(-c2[nH]c3ccc(N4CCN(C(=O)CNC(C)C)C[C@H]4C)nc3c2C(C)C)cn2ncnc2c1C [Example 837] |  |  |  |  |  |  | pIC50 [1, 4]: 5.11; pIC50 [2, 5]: 8.80; pIC50 [3, 6]: 9.15
Cc1c(-c2[nH]c3ccc(N4CCN(CC(C)(C)O)CC4)nc3c2C(C)C)cn2ncnc2c1C [Example 105, 1-(4-(2-(7,8-dimethyl-[1,2,4]triazolo[1,5-a]pyridin-6-yl)-3-isopropyl-1H-pyrrolo[3,2-b]pyridin-5-yl)piperazin-1-yl)-2-methylpropan-2-ol] |  |  |  | 5.03 | 9.82 | 8.41 | 
CCN(CC)C1CCC(c2ccc3[nH]c(-c4cn5ncnc5c(C)c4C)c(C(C)C)c3n2)CC1 (stereo not drawn) [Example 411] | 5.64 | 8.10 | 8.20 |  |  |  | 
COc1cc(-c2[nH]c3ccc(C4CCC(N(C)C)CC4)nc3c2C(C)C)cn2ncnc12 (stereo not drawn) [Example 179] |  |  |  | 5.76 | 8.15 | 9.04 | 
CC(C)c1c(-c2cc(CO)c3ncnn3c2)[nH]c2ccc(C3CCC(NCc4c[nH]nn4)CC3)nc12 (stereo not drawn) [Example 221] |  |  |  | 6.36 | 7.89 | 8.43 | 
Cc1cc2[nH]c(-c3cc(C)c4ncnn4c3)c(C(C)C)c2nc1C1CCN(C2COC2)CC1 [Example 578] | 5.38 | 6.54 | 9.28 |  |  |  | 
Cc1c(-c2[nH]c3ccc(C4CCC(N5CC(F)(F)C5)CC4)nc3c2C(C)C)cn2ncnc2c1C (stereo not drawn) [Example 370] |  |  |  | < 4.30 | 7.64 | 8.07 | 
Cc1c(-c2[nH]c3ccc(C4CCC(NC5CCS(=O)(=O)CC5)CC4)nc3c2C(C)C)cn2ncnc2c1C (stereo not drawn) [Example 1043] |  |  |  |  |  |  | pIC50 [1, 4]: 5.76; pIC50 [2, 5]: 8.80; pIC50 [3, 6]: 8.68
